Results on 49 molecules are retold here after patent US6916812B2, “Alpha-aminoamide derivatives as melanocortin agonists” (Bristol-Myers Squibb Company, priority 2001, dated 2005).

The experiment deals with T1, cloned human MC4R (Homo sapiens, UniProt P32245).
T1 construct: made in house; host or cells: Hi5 insect cells (baculovirus infection); membrane preparation
The experiment in a line: Membrane binding assay: competitive inhibition of [125I]NDP-α-MSH binding. The settings on record: for inhibition at 10 µM: read-out: Displacement Rate (%) (at 10 μM); for IC50: read-out: MC4R IC50.

Setting [1] is: at 10 μM, [125I]NDP-α-MSH displacement.

Read-outs that look alike come from different tables or passages of the source. Bounds are passed on as bounds.

T1 sequence (P32245 whole entry): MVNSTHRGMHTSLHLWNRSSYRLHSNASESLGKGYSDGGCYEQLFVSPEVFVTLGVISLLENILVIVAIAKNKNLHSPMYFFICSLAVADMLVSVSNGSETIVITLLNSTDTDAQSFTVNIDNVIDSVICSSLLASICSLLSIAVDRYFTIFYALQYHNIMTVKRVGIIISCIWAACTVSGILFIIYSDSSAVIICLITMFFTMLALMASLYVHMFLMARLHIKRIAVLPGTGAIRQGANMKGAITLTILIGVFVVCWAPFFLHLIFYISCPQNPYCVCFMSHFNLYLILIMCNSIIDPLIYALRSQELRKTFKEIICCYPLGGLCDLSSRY

Usually IC50 stands for the concentration that inhibits the measured activity by half. `CN(C)c1ccc(CN2CCN(C(=O)[C@@H](N)Cc3ccc(OCc4ccccc4)cc3)CC2)c2ccccc12` [Example 137]: the IC50 was > 3000 nM. Further, under setting [1], the inhibition at 10 µM fell in the range of 35 to 70%.

For the molecule `N[C@@H](Cc1ccc(OCc2ccccc2)cc1)C(=O)N1CCN(Cc2ccc(C(F)(F)F)cc2)CC1` [Example 138], the IC50 is > 3000 nM. Besides, under setting [1], the inhibition at 10 µM is 35 to 70%.

`N[C@@H](Cc1ccc(OCc2ccccc2)cc1)C(=O)N1CCN(C2CCN(CCc3ccccc3)CC2)CC1` [Example 139]: the IC50 is 1500 to 3000 nM. Further, the inhibition at 10 µM under setting [1] was in the range of 35 to 70%.

Take `N[C@@H](Cc1ccc(OCc2ccccc2)cc1)C(=O)N1CCN(Cc2c(F)cccc2Cl)CC1` [Example 140]: the IC50 was > 3000 nM. Also, the inhibition at 10 µM under setting [1] lay in the range of 35 to 70%.

On to `N[C@@H](Cc1ccc(OCc2ccccc2)cc1)C(=O)N1CCN(Cc2ccccc2)CC1` [Example 141], for which the IC50 was > 3000 nM. For the same molecule, the inhibition at 10 µM under setting [1] is 35 to 70%.

Take `N[C@@H](Cc1ccc(OCc2ccccc2)cc1)C(=O)N1CCN(Cc2c(F)cccc2F)CC1` [Example 142]: the IC50 is > 3000 nM. Further, the inhibition at 10 µM under setting [1] was 35 to 70%.

Consider `CC(C)N1CCN(C(=O)[C@@H](N)Cc2ccc(OCc3ccccc3)cc2)CC1` [Example 143], for which the IC50 is > 3000 nM. For the same molecule, the inhibition at 10 µM under setting [1] was 35 to 70%.

In the case of `Cc1cccc(CN2CCN(C(=O)[C@@H](N)Cc3ccc(OCc4ccccc4)cc3)CC2)c1` [Example 144], the IC50 was > 3000 nM. Under setting [1], the inhibition at 10 µM lay within 35 to 70%.

`N[C@@H](Cc1ccc(OCc2ccccc2)cc1)C(=O)N1CCN(Cc2cc(F)ccc2F)CC1` [Example 145]: the IC50 was > 3000 nM. Moreover, the inhibition at 10 µM under setting [1] lay in the range of 35 to 70%.

As for `CC(C)CN1CCN(C(=O)[C@@H](N)Cc2ccc(OCc3ccccc3)cc2)CC1` [Example 146], the IC50 was > 3000 nM. Further, under setting [1], the inhibition at 10 µM was in the range of 35 to 70%.

`N[C@@H](Cc1ccc(OCc2ccccc2)cc1)C(=O)N1CCN(CCCc2ccccc2)CC1` [Example 147]: the IC50 is > 3000 nM. For the same molecule, the inhibition at 10 µM under setting [1] is 35 to 70%.

`N[C@@H](Cc1ccc(OCc2ccccc2)cc1)C(=O)N1CCN(Cc2cc(O)ccc2[N+](=O)[O-])CC1` [Example 148]: the inhibition at 10 µM lay in the range of 35 to 70% and the IC50 was > 3000 nM.

On to `N[C@@H](Cc1ccc(OCc2ccccc2)cc1)C(=O)N1CCN(Cc2ccc([N+](=O)[O-])cc2)CC1` [Example 149], for which the IC50 was > 3000 nM. The inhibition at 10 µM under setting [1] is 35 to 70%.

With `COc1cc(CN2CCN(C(=O)[C@@H](N)Cc3ccc(OCc4ccccc4)cc3)CC2)ccc1OCc1ccc([N+](=O)[O-])cc1` [Example 150], the IC50 was in the range of 1500 to 3000 nM. The inhibition at 10 µM under setting [1] was 35 to 70%.

As to `N[C@@H](Cc1ccc(OCc2ccccc2)cc1)C(=O)N1CCN(Cc2ccco2)CC1` [Example 151], the IC50 was > 3000 nM. For the same molecule, the inhibition at 10 µM under setting [1] fell in the range of 35 to 70%.

Turning to `N[C@@H](Cc1ccc(OCc2ccccc2)cc1)C(=O)N1CCN(Cc2cccc([N+](=O)[O-])c2)CC1` [Example 152], the IC50 was > 3000 nM. Also, under setting [1], the inhibition at 10 µM was 35 to 70%.

On to `N[C@@H](Cc1ccc(OCc2ccccc2)cc1)C(=O)N1CCN(Cc2ccc(F)cc2F)CC1` [Example 153], for which the IC50 was > 3000 nM. In addition, the inhibition at 10 µM under setting [1] was 35 to 70%.

As to `N[C@@H](Cc1ccc(OCc2ccccc2)cc1)C(=O)N1CCN(Cc2cc3c(cc2[N+](=O)[O-])OCO3)CC1` [Example 154], the IC50 is > 3000 nM. Besides, under setting [1], the inhibition at 10 µM was 35 to 70%.

On to `N[C@@H](Cc1ccc(OCc2ccccc2)cc1)C(=O)N1CCN(C2CCN(Cc3ccccc3)CC2)CC1` [Example 155], for which the IC50 is > 3000 nM. Further, the inhibition at 10 µM under setting [1] was in the range of 35 to 70%.

Take `N[C@@H](Cc1ccc(OCc2ccccc2)cc1)C(=O)N1CCN(Cc2ccc3c(c2)OCCO3)CC1` [Example 156]: the IC50 was > 3000 nM. The inhibition at 10 µM under setting [1] lay in the range of 35 to 70%.

For the molecule `CC(c1ccccc1)N1CCN(C(=O)[C@@H](N)Cc2ccc(OCc3ccccc3)cc2)CC1` (stereo partly shown) [Example 157], the IC50 was > 3000 nM. Also, the inhibition at 10 µM under setting [1] lay in the range of 35 to 70%.

For `N[C@@H](Cc1ccc(OCc2ccccc2)cc1)C(=O)N1CCN(C2CCCC2)CC1` [Example 158], the IC50 was > 3000 nM. Also, the inhibition at 10 µM under setting [1] was in the range of 35 to 70%.

Turning to `CN[C@@H](Cc1ccc(OCc2ccccc2)cc1)C(=O)N1CCN(Cc2cccc(Cl)c2Cl)CC1` [Example 165], the IC50 is < 1500 nM.

Regarding `CCN[C@@H](Cc1ccc(OCc2ccccc2)cc1)C(=O)N1CCN(Cc2cccc(Cl)c2Cl)CC1` [Example 166], the IC50 is < 1500 nM. Besides, the inhibition at 10 µM under setting [1] was in the range of 91 to 100%.

`CCCN[C@@H](Cc1ccc(OCc2ccccc2)cc1)C(=O)N1CCN(Cc2cccc(Cl)c2Cl)CC1` [Example 167]: the IC50 was < 1500 nM. Further, the inhibition at 10 µM under setting [1] is 91 to 100%.

In the case of `CC(C)N[C@@H](Cc1ccc(OCc2ccccc2)cc1)C(=O)N1CCN(Cc2cccc(Cl)c2Cl)CC1` [Example 168], the IC50 is < 1500 nM. Further, the inhibition at 10 µM under setting [1] lay within 71 to 90%.

Regarding `CCCCN[C@@H](Cc1ccc(OCc2ccccc2)cc1)C(=O)N1CCN(Cc2cccc(Cl)c2Cl)CC1` [Example 169], the IC50 is < 1500 nM. Besides, the inhibition at 10 µM under setting [1] lay within 91 to 100%.

As to `O=C([C@H](Cc1ccc(OCc2ccccc2)cc1)NCc1ccccc1)N1CCN(Cc2cccc(Cl)c2Cl)CC1` [Example 170], the IC50 was > 3000 nM. In addition, the inhibition at 10 µM under setting [1] fell in the range of 71 to 90%.

For `O=C([C@H](Cc1ccc(OCc2ccccc2)cc1)NCCc1ccccc1)N1CCN(Cc2cccc(Cl)c2Cl)CC1` [Example 171], the IC50 is > 3000 nM. Moreover, the inhibition at 10 µM under setting [1] fell in the range of 71 to 90%.

Turning to `O=C([C@H](Cc1ccc(OCc2ccccc2)cc1)NCCN1CCOCC1)N1CCN(Cc2cccc(Cl)c2Cl)CC1` [Example 172], the IC50 was in the range of 1500 to 3000 nM. Moreover, the inhibition at 10 µM under setting [1] lay within 71 to 90%.

Consider `O=C([C@H](Cc1ccc(OCc2ccccc2)cc1)NCCCN1CCOCC1)N1CCN(Cc2cccc(Cl)c2Cl)CC1` [Example 173], for which the IC50 is < 1500 nM. Further, under setting [1], the inhibition at 10 µM fell in the range of 91 to 100%.

With `CN(C)CCCN[C@@H](Cc1ccc(OCc2ccccc2)cc1)C(=O)N1CCN(Cc2cccc(Cl)c2Cl)CC1` [Example 174], the IC50 was < 1500 nM. Also, the inhibition at 10 µM under setting [1] lay in the range of 91 to 100%.

Regarding `CN(C)CCN[C@@H](Cc1ccc(OCc2ccccc2)cc1)C(=O)N1CCN(Cc2cccc(Cl)c2Cl)CC1` [Example 175], the IC50 is < 1500 nM. The inhibition at 10 µM under setting [1] lay within 91 to 100%.

For the molecule `O=C([C@H](Cc1ccc(OCc2ccccc2)cc1)NCCN1CCCCC1)N1CCN(Cc2cccc(Cl)c2Cl)CC1` [Example 176], the IC50 is < 1500 nM. Further, under setting [1], the inhibition at 10 µM lay within 91 to 100%.

As for `N[C@@H](Cc1ccc(OCc2ccccc2)cc1)C(=O)N1CCN(Cc2cccc(Cl)c2Cl)CC1` [Example 178], the IC50 is < 1500 nM. Further, under setting [1], the “Displacement Rate (%) (at 10 μM)” value was “+++ (+++ = 91-100)”.

In the case of `N[C@@H](Cc1ccc(OCc2ccccc2Br)cc1)C(=O)N1CCN(Cc2cccc(Cl)c2Cl)CC1` [Example 179], the IC50 was < 1500 nM. Moreover, under setting [1], the “Displacement Rate (%) (at 10 μM)” value is given as “+++ (+++ = 91-100)”.

Take `N[C@@H](Cc1ccc(OCc2cccc(F)c2)cc1)C(=O)N1CCN(Cc2cccc(Cl)c2Cl)CC1` [Example 180]: the IC50 is < 1500 nM. For the same molecule, the “Displacement Rate (%) (at 10 μM)” value under setting [1] was “+++ (+++ = 91-100)”.

With `N[C@@H](Cc1ccc(OCc2ccc(C(F)(F)F)cc2)cc1)C(=O)N1CCN(Cc2cccc(Cl)c2Cl)CC1` [Example 181], the IC50 was < 1500 nM. Under setting [1], the “Displacement Rate (%) (at 10 μM)” value was “+++ (+++ = 91-100)”.

In the case of `N[C@@H](Cc1ccc(OCc2ccccc2C(F)(F)F)cc1)C(=O)N1CCN(Cc2cccc(Cl)c2Cl)CC1` [Example 182], the IC50 is < 1500 nM. For the same molecule, the “Displacement Rate (%) (at 10 μM)” value under setting [1] was “+++ (+++ = 91-100)”.

Take `N[C@@H](Cc1ccc(OCc2ccc(Cl)cc2)cc1)C(=O)N1CCN(Cc2cccc(Cl)c2Cl)CC1` [Example 183]: the IC50 was < 1500 nM. Under setting [1], the “Displacement Rate (%) (at 10 μM)” value is on record as “+++ (+++ = 91-100)”.

With `CCCCc1ccc(COc2ccc(C[C@H](N)C(=O)N3CCN(Cc4cccc(Cl)c4Cl)CC3)cc2)cc1` [Example 184], the IC50 was < 1500 nM. Under setting [1], the “Displacement Rate (%) (at 10 μM)” value is “+++ (+++ = 91-100)”.

On to `N[C@@H](Cc1ccc(OCc2c(F)c(F)c(F)c(F)c2F)cc1)C(=O)N1CCN(Cc2cccc(Cl)c2Cl)CC1` [Example 185], for which the IC50 was < 1500 nM. The “Displacement Rate (%) (at 10 μM)” value under setting [1] is “+++ (+++ = 91-100)”.

For the molecule `N[C@@H](Cc1ccc(OCc2ccc(Br)cc2)cc1)C(=O)N1CCN(Cc2cccc(Cl)c2Cl)CC1` [Example 186], the IC50 is < 1500 nM. Besides, the “Displacement Rate (%) (at 10 μM)” value under setting [1] is “+++ (+++ = 91-100)”.

As to `N[C@@H](Cc1ccc(OCc2cccc(C(F)(F)F)c2)cc1)C(=O)N1CCN(Cc2cccc(Cl)c2Cl)CC1` [Example 187], the IC50 was 1500 to 3000 nM. Besides, the “Displacement Rate (%) (at 10 μM)” value under setting [1] is “+++ (+++ = 91-100)”.

In the case of `N[C@@H](Cc1ccc(OCc2ccc(F)cc2)cc1)C(=O)N1CCN(Cc2cccc(Cl)c2Cl)CC1` [Example 188], the half-maximal inhibitory concentration (IC50) was < 1500 nM. Besides, under setting [1], the “Displacement Rate (%) (at 10 μM)” value was “+++ (+++ = 91-100)”.

On to `N[C@@H](Cc1ccc(OCc2cc(Cl)cc(Cl)c2)cc1)C(=O)N1CCN(Cc2cccc(Cl)c2Cl)CC1` [Example 189], for which the IC50 was < 1500 nM. The “Displacement Rate (%) (at 10 μM)” value under setting [1] is recorded as “+++ (+++ = 91-100)”.

Turning to `Cc1cc(C)cc(COc2ccc(C[C@H](N)C(=O)N3CCN(Cc4cccc(Cl)c4Cl)CC3)cc2)c1` [Example 190], the IC50 was in the range of 1500 to 3000 nM. In addition, the “Displacement Rate (%) (at 10 μM)” value under setting [1] is on record as “+++ (+++ = 91-100)”.

As for `Cc1ccc(COc2ccc(C[C@H](N)C(=O)N3CCN(Cc4cccc(Cl)c4Cl)CC3)cc2)cc1C` [Example 191], the IC50 was < 1500 nM. Further, under setting [1], the “Displacement Rate (%) (at 10 μM)” value is given as “+++ (+++ = 91-100)”.

Regarding `Cc1ccc(COc2ccc(C[C@H](N)C(=O)N3CCN(Cc4cccc(Cl)c4Cl)CC3)cc2)cc1` [Example 192], the IC50 was < 1500 nM. Under setting [1], the “Displacement Rate (%) (at 10 μM)” value was “+++ (+++ = 91-100)”.
